Reference: patent publication US6521656B1, “Remedies for male sterility” (Fujisawa Pharmaceutical Co., Ltd., priority 1998, dated 2003)

System: human sperm
Assay: Test for evaluation of the promoting effect on the induction of sperm acrosomal reaction (FITC-concanavalin A fluorescence staining)
Assay type: cell-based
Details: for acrosomal reaction induction rate (%): incubation time 3; for induction of acrosomal reaction: human sperm, summary in words
Protocol: Percoll for sperm washing was isotonized and adjusted to 90% with 20 mM Hepes buffered Hanks solution (pH 7.4; supplemented with 1.0 mg/ml BSA). The ejaculated human seminal fluid was allowed to liquefy at room temperature, diluted 2-fold with Hanks solution, and layered on 6.0 ml Percoll. In the Percoll layer, a glass capillary had been inserted in advance. The system was centrifuged at 1000×g for 30 minutes to precipitate motile sperm. The precipitated sperm was aspirated through the capillary and recovered. The sperm was resuspended in Hanks solution at a final concentration of about 50×10^6/ml and cultured at 37° C.
The human sperm acrosomal reaction was monitored by a fluorescence staining technique using FITC-concanavalin A.
As the acrosomal cap splits off on acrosomal reaction, the membrane protein rich in the high-mannose sugar chain on the acrosomal tunica intima becomes exposed. Therefore, the sperm showing a yellow fluorescence in the anterior half of the head was regarded as acrosomal reaction-induced sperm.
Compound A was added to the sperm suspension at a final concentration of 10^−6 or 10^−7 M. Observation was made in the group supplemented with 1 I.U./ml of adenosine deaminase and the non-enzyme-addition group.
Compounds B and C were respectively added to the sperm suspension at a final concentration of 10^−7 M. Observation was made in the groups supplemented with 1 I.U./ml of adenosine deaminase.
Each figure denotes the acrosomal reaction induction rate (%) (the mean±S.E. of 3 observations in Table 1; the mean±S.E. of 5 observations in Tables 2 and 3). In Table 1, the figure in the top row represents the result obtained in the absence of adenosine deaminase and the figures in the bottom row represent the results in the presence of adenosine deaminase.

Row | SMILES | acrosomal reaction induction rate (%) (Compound B 10^−7 M, supplemented with 1 I.U./ml adenosine deaminase, mean±S.E. of 5 observations) | induction of acrosomal reaction | acrosomal reaction induction rate (%) (Compound A 10^−6 M, absence of adenosine deaminase, mean±S.E. of 3 observations) | acrosomal reaction induction rate (%) (Compound A 10^−6 M, presence of adenosine deaminase 1 I.U./ml, mean±S.E. of 3 observations) | acrosomal reaction induction rate (%) (Compound A 10^−7 M, absence of adenosine deaminase, mean±S.E. of 3 observations) | acrosomal reaction induction rate (%) (Compound A 10^−7 M, presence of adenosine deaminase 1 I.U./ml, mean±S.E. of 3 observations) | acrosomal reaction induction rate (%) (Compound C 10^−7 M, supplemented with 1 I.U./ml adenosine deaminase, mean±S.E. of 5 observations)
1 | O=C(O)C[C@H]1CCCCN1C(=O)C=Cc1c(-c2ccccc2)nn2ccccc12 (single isomer, unassigned) [Compound B] | 41.26 ± 2.18 | promoted | – | – | – | – | –
2 | O=C(O)CCCn1nc(-c2c(-c3ccccc3)nn3ccccc23)ccc1=O [Compound A, 3-[2-(3-Carboxypropyl)-3-oxo-2,3-dihydropyridazin-6-yl]-2-phenylpyrazolo[1,5-a]pyridine] | – | promoted | 43.7 ± 2.77 | 63.6 ± 1.84 | 47.1 ± 2.37 | 64.1 ± 1.73 | –
3 | O=C(O)CC1=C(n2nc(-c3c(-c4ccccc4)nn4ccccc34)ccc2=O)CCCC1 [Compound C, 3-[2-(2-Carboxymethyl-1-cyclohexenyl)-3-oxo-2,3-dihydropyridazin-6-yl]-2-phenylpyrazolo[1,5-a]pyridine] | – | promoted | – | – | – | – | 48.86 ± 2.57
